Data as given in patent US20220296595A1, “CDK INHIBITORS” (QILU REGOR THERAPEUTICS INC., priority 2019, published 2022).
Read-outs that look alike come from different tables or passages of the source.

Tests used:
CDK6/CyclinD3 = molecular target: T1, CDK6/CyclinD3 (Homo sapiens, UniProt Q00534); test: Assay for inhibition of CDK6/CyclinD3 (Caliper microfluidic kinase assay); assay type: biochemical
T1 construct: purchased Carna 04-107
Method: The CDK6 enzyme assay for IC50 determination was performed as follows. Microfluidic kinase detection technology (Caliper) was used to monitor the phosphorylation of peptide substrate by CDK6/CyclinD3. The total reaction volume is 15 μL containing buffer A (100 mM HEPES (pH 7.5), 0.1% BSA, 0.01% Triton X-100, 1 mM DTT, 10 mM MgCl2, 10 μM Sodium Orthovanadate, 10 μM Beta-Glycerophosphate), 300 μM ATP, 2 nM CDK6/CyclinD3 (Carna, 04-107), 1 μM FL-34 (5-FAM-[…]), and the test compound at appropriate dilutions in DMSO. All components were added to the 384-well plate (Corning, 4514), and incubated at Room Temperature for 3 hours. The reaction was terminated by addition of 15 μL Stop Buffer (180 mM HEPES (pH 7.5), 20 mM EDTA, Coating-3 reagent (PerkinElmer, 760050)). The plate was then loaded on Caliper EZ Reader (EZ Reader II, PerkinElmer, HD-4HYSG2772), and the reaction mixtures including substrate and product were sipped into the microfluidic chip for separation and detection. The IC50 values of the test compound were determined by fitting the inhibition curves by 4 parameter sigmoidal dose-response model using the Xlfit5/GraphPad Prism 5 software.

CDK4/CyclinD1 = molecular target: T2, CDK4/CyclinD1 (Homo sapiens, UniProt P11802); test: Assay for inhibition of CDK4/CyclinD1 (Caliper microfluidic kinase assay); assay type: biochemical
T2 construct: purchased Thermofisher PR8064A
T2 sequence (P11802 whole entry): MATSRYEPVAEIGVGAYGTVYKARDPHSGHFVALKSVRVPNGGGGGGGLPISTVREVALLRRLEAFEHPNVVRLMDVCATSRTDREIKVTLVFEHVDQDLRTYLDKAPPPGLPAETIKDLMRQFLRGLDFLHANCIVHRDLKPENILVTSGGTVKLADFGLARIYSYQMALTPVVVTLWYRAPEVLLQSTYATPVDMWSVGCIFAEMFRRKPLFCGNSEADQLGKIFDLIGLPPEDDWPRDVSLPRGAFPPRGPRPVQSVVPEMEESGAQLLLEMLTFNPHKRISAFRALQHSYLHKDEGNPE
T2 sequence (P24385 whole entry partner): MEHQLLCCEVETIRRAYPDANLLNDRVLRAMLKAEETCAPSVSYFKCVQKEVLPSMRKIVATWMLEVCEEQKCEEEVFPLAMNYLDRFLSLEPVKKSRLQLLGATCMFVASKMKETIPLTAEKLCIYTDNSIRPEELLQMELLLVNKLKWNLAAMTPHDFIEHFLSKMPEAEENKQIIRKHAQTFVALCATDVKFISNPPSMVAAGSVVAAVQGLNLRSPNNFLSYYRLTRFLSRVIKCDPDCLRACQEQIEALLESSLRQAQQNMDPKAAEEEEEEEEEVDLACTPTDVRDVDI
In short: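 IC50 was obtained by 4-parameter sigmoidal fitting after 1 nM CDK4/CyclinD1, 200 μM ATP and 1 μM FL-34 substrate reacted for 3 h at room temperature (pH 7.5 HEPES, 10 mM MgCl2). After EDTA quench, substrate and product were separated and detected on a Caliper microfluidic chip.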

CDK2/CyclinE1 = molecular target: T3, CDK2/CyclinE1 (Homo sapiens, UniProt P24941); test: Assay for inhibition of CDK2/CyclinE1 (Caliper microfluidic kinase assay); assay type: biochemical; conditions: read-out: CDK2 IC50
T3 construct: purchased SignalChem C29-18G
In short: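 IC50 came from 4-parameter fits of substrate-to-product conversion, separated on a Caliper chip after an EDTA stop. Reactions ran 3 hours at room temperature with 100 μM ATP, 5 μM fluorescent FL-18 peptide and 5 nM enzyme in 100 mM HEPES pH 7.5, 10 mM MgCl2.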

T47D breast cancer cells = test: Anti-proliferation assay in T47D cell (Cyquant, day 6); assay type: cell-based, human; conditions: anti-proliferation, T47D cells, read-out: T47D IC50
From the text: T47D is a human breast cancer cell line commonly used in biomedical research involving the hormonal expression of cancer cells. T47D cells are distinct from other human breast cancer cells in that their progesterone receptors (PR) are not regulated by estradiol, a hormone that is abundant within the cells themselves. T47D cells have been employed in studies of the effects of progesterone on breast cancer and the corresponding transcriptional regulation caused by introduced drugs. The cells have been noted to be extremely resistant to estrogens and antiestrogens.
T47D breast cancer cells from American Type Culture Collection (ATCC, HTB-133) were plated at 3000 cells/well in 96-well plates, and were incubated in RPMI 1640 medium (Gibco, 31800105) with 10% Fetal Bovine Serum (FBS, Biowest, FB-1058) at 37° C., 5% CO2. After overnight incubation, baseline values were measured of the samples from one plate using Cyquant reagent (Invitrogen, C35011) following manufacturer's recommendations. Cells were incubated with the detection reagent for 1 hour at 37° C., and then the fluorescence was measured with excitation at 485 nm and emission at 535 nm using Spectra Max M5 (Molecular Devices, HD-4HYSG3196). Other plates were dosed with compounds at a ten-point dose concentration from 10 μM to 0.51 nM in a 3-fold dilution scheme. On day 6 after compound addition, Cyquant reagent was added and the fluorescence was measured using Spectra Max M5. The IC50 values of the test compound's anti-proliferation activity were determined from the baseline subtracted viability readout curve using Xlfit5/GraphPad Prism 5 software.

T1 sequence (Q00534 whole entry): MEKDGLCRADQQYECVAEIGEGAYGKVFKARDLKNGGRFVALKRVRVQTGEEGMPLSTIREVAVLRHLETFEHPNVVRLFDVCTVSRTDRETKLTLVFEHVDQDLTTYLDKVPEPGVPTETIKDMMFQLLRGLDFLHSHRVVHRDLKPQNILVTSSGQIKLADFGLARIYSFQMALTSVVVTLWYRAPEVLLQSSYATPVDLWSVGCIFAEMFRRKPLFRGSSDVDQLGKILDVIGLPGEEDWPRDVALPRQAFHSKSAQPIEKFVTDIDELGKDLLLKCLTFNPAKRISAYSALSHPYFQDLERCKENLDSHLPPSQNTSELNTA
T1 sequence (P30281 whole entry partner): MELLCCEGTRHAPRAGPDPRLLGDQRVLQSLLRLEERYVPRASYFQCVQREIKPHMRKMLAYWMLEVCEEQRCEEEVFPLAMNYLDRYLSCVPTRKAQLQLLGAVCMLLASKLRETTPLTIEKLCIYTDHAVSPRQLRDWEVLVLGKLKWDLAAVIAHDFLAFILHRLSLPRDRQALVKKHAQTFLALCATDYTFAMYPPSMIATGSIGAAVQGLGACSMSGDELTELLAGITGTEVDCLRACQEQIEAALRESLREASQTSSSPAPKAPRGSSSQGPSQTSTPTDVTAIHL

| IC50 (CDK6/CyclinD3; CDK6/CyclinD3) [nM] | IC50 (CDK4/CyclinD1; CDK4/CyclinD1) [nM] | IC50 (CDK2/CyclinE1; CDK2/CyclinE1) [nM] | IC50 (CDK6/CyclinD3; CDK6/CyclinD3, 300 μM ATP) [nM] | IC50 (CDK4/CyclinD1; CDK4/CyclinD1, 200 μM ATP) [nM] | IC50 (CDK2/CyclinE1; CDK2/CyclinE1, 100 μM ATP) [nM] | IC50 (T47D breast cancer cells; Homo sapiens, T47D) [nM] | IC50 (T47D breast cancer cells) [nM] | Structure (SMILES) |
| --- | --- | --- | --- | --- | --- | --- | --- | --- |
| 100 to 1000 | 10 to 100 | > 1000 | – | – | – | – | – | CCn1cnc2c(OC)nc(-c3nc(Nc4ccc(N5CCOCC5=O)cn4)ncc3F)cc21 [compound 84] |
| – | – | – | 100 to 1000 | 10 to 100 | 100 to 1000 | 500 to 1000 | – | CC(C)c1cnn2ccc(-c3nc(Nc4ccc(CN5CCOCC5=O)cn4)ncc3F)cc12 [compound 15] |
| – | – | – | 100 to 1000 | 10 to 100 | > 1000 | > 1000 | – | CC(C)c1cnn2ccc(-c3nc(Nc4ccc(CN5CCN6CCCC6C5)cn4)ncc3F)cc12 (stereo not drawn) [compound 8] |
| – | – | – | < 10 | < 10 | < 10 | – | – | CC(C)c1cnn2ccc(-c3ccnc(Nc4ccc5c(c4)CS(=O)(=O)C5)n3)cc12 [compound 179] |
| – | – | – | 10 to 100 | < 10 | < 10 | – | – | CC(C)c1cnn2ccc(-c3ccnc(Nc4ccc(N5CCNCC5=O)cc4F)n3)cc12 [compound 224] |
| 10 to 100 | 10 to 100 | > 1000 | – | – | – | 100 to 500 | – | COc1nc(-c2nc(Nc3ccc(C(=O)N4CCC(NC5CC5)CC4)c(C)n3)ncc2F)cc2c1nc(C)n2C(C)C [compound 86] |
| 10 to 100 | < 10 | 10 to 100 | – | – | – | – | – | COc1nc(-c2nc(Nc3ccc(N4CCOCC4=O)cc3F)ncc2F)cc2c1nc(C)n2C(C)C [compound 92] |
| – | – | – | < 10 | < 10 | < 10 | < 100 | – | CC(C)c1cnn2ccc(-c3ccnc(Nc4ccc(N5CCNCC5=O)cc4)n3)cc12 [compound 226] |
| – | – | – | 10 to 100 | < 10 | < 10 | – | – | CC(C)(C)c1cnn2ccc(-c3ccnc(Nc4ccc(N5CCNCC5=O)cc4F)n3)cc12 [compound 225] |
| – | – | – | < 10 | < 10 | 10 to 100 | < 100 | – | CNC1CCCN(c2ccc(Nc3nccc(-c4ccn5nc(C)c(C(C)C)c5c4)n3)cc2)C1=O (stereo not drawn) [compound 217] |
| – | – | – | 10 to 100 | < 10 | 100 to 1000 | – | – | CC(C)N1CCN(c2ccc(Nc3nccc(-c4cc5c(ncn5C(C)C)c(F)n4)n3)nc2)CC1 [Synthetic Example 287] |
| – | – | – | 100 to 1000 | 10 to 100 | 10 to 100 | 100 to 500 | – | CC(C)c1cnn2ccc(-c3nc(NC4CCN(S(C)(=O)=O)CC4)ncc3F)cc12 [Synthetic Example 10] |
| – | – | – | < 10 | < 10 | < 10 | – | < 100 | CC(C)c1cnn2ccc(-c3ccnc(Nc4ccc(N5CCC(N(C)C)CC5)cn4)n3)cc12 (single isomer, unassigned) [Synthetic Example 161, N-[5-[4-(dimethylamino)-1-piperidyl]-2-pyridyl]-4-(3-isopropylpyrazolo[1,5-a]pyridin-5-yl)pyrimidin-2-amine] |
| – | – | – | 10 to 100 | 10 to 100 | 10 to 100 | – | – | CC(C)c1cnn2ccc(-c3ccnc(Nc4ccc(N5CCC(O)CC5=O)cn4)n3)cc12 (stereo not drawn) [compound 183] |
| – | – | – | < 10 | < 10 | < 10 | < 100 | – | CNC1CCCN(c2ccc(Nc3nccc(-c4ccn5ncc(C(C)C)c5c4)n3)cc2)C1=O (stereo not drawn) [compound 215] |
| – | – | – | 10 to 100 | < 10 | > 1000 | 100 to 500 | – | COc1nc(-c2nc(Nc3ccc(N4CCNCC4=O)cn3)ncc2F)cc2c1nc(C)n2C(C)C [compound 107] |
